Calls of active or inactive are those of the source. The rule behind the calls is not given here.
Key:
[1] = Upregulation of acetylated H3 protein expression in human MDA-MB-231 cells assessed as fold change at 0.1 uM incubated for 24 hrs by immunoblotting analysis (reference value: 1); format: functional
[2] = Upregulation of acetylated H4 protein expression in human MDA-MB-231 cells assessed as fold change at 0.1 uM incubated for 24 hrs by immunoblotting analysis (reference value: 1); format: functional
[3] = Downregulation of HDAC2 protein expression in human NCI-H1975 cells assessed as fold change at 0.05 uM incubated for 24 hrs by immunoblotting analysis (reference value: 1); format: functional
[4] = Downregulation of HDAC3 protein expression in human MDA-MB-231 cells assessed as fold change at 0.1 uM incubated for 24 hrs by immunoblotting analysis (reference value: 1); format: functional
[5] = Downregulation of HDAC8 protein expression in human NCI-H1975 cells assessed as fold change at 0.05 uM incubated for 24 hrs by immunoblotting analysis (reference value: 1); format: functional
[6] = Effect on HDAC4 protein expression in human MDA-MB-231 cells assessed as fold change at 0.05 uM incubated for 24 hrs by immunoblotting analysis (reference value: 1); format: functional
[7] = Effect on HDAC5 protein expression in human NCI-H1975 cells assessed as fold change at 0.05 uM incubated for 24 hrs by immunoblotting analysis (reference value: 1); format: functional
[8] = Downregulation of HDAC7 protein expression in human MDA-MB-231 cells assessed as fold change at 0.05 uM incubated for 24 hrs by immunoblotting analysis (reference value: 1); format: functional
[9] = Effect on HDAC9 protein expression in human MDA-MB-231 cells assessed as fold change at 0.05 uM incubated for 24 hrs by immunoblotting analysis (reference value: 1); format: functional
[10] = Downregulation of HDAC10 protein expression in human NCI-H1975 cells assessed as fold change at 0.1 uM incubated for 24 hrs by immunoblotting analysis (reference value: 1); format: functional
MDA-MB-231 [11] = test: Antitumor activity against human MDA-MB-231 cells xenografted in athymic nude BALB/c mouse assessed as reduction in tumor growth at 3 mg/kg, ip administered 5 times a week for 7 weeks by vernier caliper method; format: functional, organism-based
MDA-MB-231 [12] = test: Antitumor activity against human MDA-MB-231 cells xenografted in athymic nude BALB/c mouse assessed as average tumor size at 3 mg/kg, ip administered 5 times a week for 7 weeks and measured on day 47 (reference value: 15.4 +/- 5.3 mm3); format: functional; details: time 47 day
[13] = Toxicity in athymic nude BALB/c mouse xenografted with human MDA-MB-231 cells assessed as effect on ALT level in serum at 3 mg/kg, ip administered 5 times a week for 7 weeks; format: organism-based; details: in vivo, 1176 h
[14] = Toxicity in athymic nude BALB/c mouse xenografted with human MDA-MB-231 cells assessed as effect on creatinine level in serum at 3 mg/kg, ip administered 5 times a week for 7 weeks; format: organism-based; details: in vivo, 1176 h

CCOc1ccc(-c2nc(C(=O)NCc3ccc(C(=O)NO)cc3)c3[nH]c(=O)n(-c4cccnc4OC)c3n2)cn1
fold change (FC) [1]: 1.35 | fold change (FC) [2]: 2.91 | fold change (FC) [3]: 0.77 | fold change (FC) [4]: 0.65 | fold change (FC) [5]: 0.85 | fold change (FC) [6]: 1.15 | fold change (FC) [7]: 2.38 | fold change (FC) [8]: 0.77 | fold change (FC) [9]: 1.08 | fold change (FC) [10]: 0.9 | Activity (MDA-MB-231 [11]): Active | Activity (MDA-MB-231 [12]): 1.7 mm3 | Activity [13]: Non-Toxic | Activity [14]: Non-Toxic

Source: ChEMBL document CHEMBL5518174 (Eur J Med Chem, 2024)
